Test results taken from patent publication US8399610B2, “HPV vaccine comprising peptides from host cell proteins” (University College Cardiff Consultants Limited, priority 2004, dated 2013).

What was measured:
[1] = system: T cell line KSI 10B7; assay: Mapping of epitope(s) recognised by T cell line KSI 10B7, IFN-γ ELISPOT with T2 cells as APC; format: cell-based, human; conditions: individual peptides, triplicate
Protocol: T cells were tested by IFN-γ ELISPOT assays against either the whole BAX peptide mixture (1-23), or different sub-pools (1-9, 10-15, 16-23) or individual peptides (10, 11, 12, 13, 14 and 15). T2 cells (which only express HLA-A*0201) were used as APC. All combinations were tested in triplicate, with 600 spots being the maximum number that could be counted in these assays; and
Further immunomagnetic enrichment, flow sorting and expansion, led to the derivation of a T cell line (KSI 10B7), with 100% specificity for BAX peptides that bound to HLA-A*0201 (data not shown). This T cell line was tested by IFN-γ ELISPOT assays against either the whole BAX peptide mixture (1-23), or different sub-pools (1-9, 10-15, 16-23) or individual peptides (10, 11, 12, 13, 14 and 15). All combinations were tested in triplicate, with 600 spots being the maximum number that could be counted in these assays. KSI 10B7 T cells recognised two similar BAX peptides (10 and 13, FIG. 9). Both these peptides were predicted to bind to HLA-A*0201 (Table 4) and had similar amino acid sequences ([…] and […]). It is believed that the KSI 10B7 T cells recognised the […] sequence that is common to both peptides.

[2] = system: CD8+ T cells recognising Rb7 peptide; assay: Detection of peptide specific CD8+ T cells in patient blood with fluoresceinated multimeric HLA-A2/peptide complexes; format: cell-based, human; conditions: 4 patients tested (3 with cervical cancer, 1 CIN3); low frequency
Protocol: T cells reactive against peptides of the invention should be preferentially found in HLA-A2 patients with cervical cancer. Blood samples from 4 patients (3 with cervical cancer, 1 with premalignant disease, CIN3) were tested for the presence of CD8^+ T cells recognising Rb7 peptide. Fluoresceinated multimeric HLA-A2/peptide complexes were used to measure numbers of peptide specific T cells by flow cytometry (10). […] These frequencies were similar to those previously obtained for HPV16 E7 peptide specific T cells (10).

[3] = system: CD8+ pentamer+ T lymphocytes; assay: Peptide:HLA-A2 pentamer staining of CD8+ T cells from healthy HLA-A2+ donors after 14 days culture with peptide; format: cell-based, human
Protocol: On day 0 and day 14 days, the numbers of peptide specific CD8^+ T cells were measured using appropriate fluoresceinated peptide:HLA-A2 pentamers. These were analysed on a flow cytometer and expressed as % of gated cells, excluding dead and […] cells.

[4] = system: IFN-γ producing T cells specific for the immunising peptide; assay: In vivo immunogenicity in HLA-A*0201 transgenic mice, IFN-γ ELISPOT on splenocytes; design: species or system HLA-A2/Kb transgenic mice; conditions: responding/immunised mice; 100 μg peptide in incomplete freunds adjuvant, splenocytes after ten to eleven days

| Substance | Recognition by KSI 10B7 T cells [1] | Patients in whose blood T cells specific for Rb7 peptide could be detected [2] | Frequency of peptide specific T lymphocytes, in words ([3]; 8 healthy donors (all HLA-A2+)) | Healthy donors in whom T lymphocytes recognising the peptide could be detected ([3]; 8 healthy donors (all HLA-A2+) tested) | Frequency of CD8+ pentamer+ cells ([3]; healthy donor 1, 14 days culture with peptide) | Frequency of CD8+ pentamer+ cells ([3]; healthy donor 2, 14 days culture with peptide) | Frequency of CD8+ pentamer+ cells ([3]; healthy donor 3, 14 days culture with peptide) | Frequency of CD8+ pentamer+ cells ([3]; healthy donor 4, 14 days culture with peptide) | Frequency of CD8+ pentamer+ cells ([3]; healthy donor 5, 14 days culture with peptide) | Frequency of CD8+ pentamer+ cells ([3]; healthy donor 6, 14 days culture with peptide) | Frequency of CD8+ pentamer+ cells ([3]; healthy donor 7, 14 days culture with peptide) | Frequency of CD8+ pentamer+ cells ([3]; healthy donor 8, 14 days culture with peptide) | Mice with significant T cell responses (IFN-γ ELISPOT) [4] |
| --- | --- | --- | --- | --- | --- | --- | --- | --- | --- | --- | --- | --- | --- |
| IMGWTLDFL [BAX peptide 13] | recognised |  |  |  |  |  |  |  |  |  |  |  |  |
| Rb7: peptide from Rb485-493 (Rb7) protein, derived from human Rb protein (SLLACALEV) |  | 2 patients | variable but generally low frequencies | 8 healthy donors | 1/2500 | 1/1000 | 1/1000 | 1/909 | 1/120 | 1/3333 | 1/2000 | 1/2500 | 7/10 |
| TIMGWTLDFL [BAX peptide 10] | recognised |  |  |  |  |  |  |  |  |  |  |  |  |
